From US20070099877A1, “N-aryl-thienopyrimidin-4-amines and analogs as activators of caspases and inducers of apoptosis and the use thereof” (Cytovia, Inc., priority 2005, published 2007)
Where two headings read alike, the source gives them in different places.

Experiments:
Format in all cases: cell-based
[1] = system: human breast cancer cell line MX-1; assay: Inhibition of cell proliferation (GI50) in MX-1 cells; conditions: MX1 cells
Method: (§1) Human breast cancer cell lines T-47D, MX-1 and MDAMB435, human colon cancer cell line HT29, and human lung cancer cell line H1299 were grown and harvested as in Example 75. An aliquot of […] of cells (4.4×10^4 cells/mL) was added to a well of a 96-well microtiter plate containing 5 μL of a 10% DMSO in RPMI-1640 media solution containing 10 nM to 100 μM of N-(2,5-dimethoxyphenyl)-2-methylthieno[3,2-d]pyrimidin-4-amine (1 nM to 10 μM final). An aliquot of 45 μL of cells was added to a well of a 96-well microtiter plate containing 5 μL of a 10% DMSO in RPMI-1640 media solution without compound as the control sample for maximal cell proliferation (Lmax). The samples were mixed by agitation and then incubated at 37° C. for 48 h in a 5% CO2-95% humidity incubator. After incubation, the samples were removed from the incubator and 25 μL of CellTiter-Glo™ reagent (Promega) was added. The samples were mixed by agitation and incubated at room temperature for 10-15 min. Plates were then read using a luminescent plate reader (Model SPECTRAfluor Plus, Tecan) to give Ltest values.
(§2) Baseline for GI50 (dose for 50% inhibition of cell proliferation) of initial cell numbers was determined by adding an aliquot of 45 μL of cells or 45 μL of media, respectively, to wells of a 96-well microtiter plate containing 5 μL of a 10% DMSO in RPMI-1640 media solution. The samples were mixed by agitation and then incubated at 37° C. for 0.5 h in a 5% CO2-95% humidity incubator. After incubation, the samples were removed from the incubator and 25 μL of CellTiter-Glo™ reagent (Promega) was added. The samples were mixed by agitation and incubated at 37° C. for 10-15 min at room temperature in a 5% CO2-95% humidity incubator. Fluorescence was read as above, (LStart) defining luminescence for initial cell number used as baseline in GI50 determinations.
(§3) GI50 (dose for 50% inhibition of cell proliferation) is the concentration where [(LTest−Lstart)/(LMax−Lstart)]=0.5.

[2] = system: human hepatocellular carcinoma cell line SNU398; assay: Caspase cascade activation in SNU398 cells; conditions: Homo sapiens, SNU-398, 48 h, read-out: Caspase activation Potency EC50 SNU398 (48 h)
Method: (§4) Human breast cancer cell line T-47D, human lung cancer cell line H1299, human hepatocellular carcinoma cell line SNU398, human colon carcinoma cell line HCT116 were grown according to media component mixtures designated by American Type Culture Collection+10% FCS (Invitrogen Corporation), in a 5% CO2-95% humidity incubator at 37° C. T-47D and H1299 cells were maintained at a cell density between 50 and 80% confluency at a cell density of 0.1 to 0.6×10^6 cells/mL. Cells were harvested at 600×g and resuspended at 0.65×10^6 cells/mL into appropriate media+10% FCS. An aliquot of 22.5 μL of cells was added to a well of a 384-well microtiter plate containing 2.5 μL of a 10% DMSO in RPMI-1640 media solution containing 0.16 to 100 μM of N-(2,5-dimethoxyphenyl)-2-methylthieno[3,2-d]pyrimidin-4-amine or other test compound (0.016 to 10 μM final). An aliquot of 22.5 μL of cells was added to a well of a 384-well microtiter plate containing 2.5 μL of a 10% DMSO in RPMI-1640 media solution without test compound as the control sample. The samples were mixed by agitation and then incubated at 37° C. for 24 h or 48 h in a 5% CO2-95% humidity incubator. After incubation, the samples were removed from the incubator and 25 μL of a solution containing 14 μM of N-(Ac-DEVD)-N′-ethoxycarbonyl-R110 (SEQ ID NO.:1) fluorogenic substrate (Cytovia, Inc.; WO99/18856), 20% sucrose (Sigma), 20 mM DTT (Sigma), 200 mM NaCl (Sigma), 40 mM Na PIPES buffer pH 7.2 (Sigma), and 500 μg/mL lysolecithin (Calbiochem) was added. The samples were mixed by agitation and incubated at room temperature. Using a fluorescent plate reader (Model SPECTRAfluor Plus, Tecan), an initial reading (T=0) was made approximately 1-2 min after addition of the substrate solution, employing excitation at 485 nm and emission at 530 nm, to determine the background fluorescence of the control sample. After the 3 h incubation, the samples were read for fluorescence as above (T=3 h).
(§5) The Relative Fluorescence Unit values (RFU) were used to calculate the sample readings as follows: RFU(T=3h)−Control RFU(T=O)=Net RFU(T=3h)
(§6) The activity of caspase cascade activation was determined by the ratio of the net RFU value for N-(2,5-dimethoxyphenyl)-2-methylthieno[3,2-d]pyrimidin-4-amine or other test compound to that of control samples. The EC50 (nM) was determined by a sigmoidal dose-response calculation (Prism 3.0, GraphPad Software Inc.).

[3] = system: human colon cancer cell line HT29; assay: Inhibition of cell proliferation (GI50) in HT29 cells; conditions: HT-29, Table III, 48 h
Method: as §1, §2, §3

[4] = system: human lung cancer cell line H1299; assay: Inhibition of cell proliferation (GI50) in H1299 cells; conditions: NCI-H1299, Table III, 48 h
Method: as §1, §2, §3

[5] = system: human lung cancer cell line H1299; assay: Caspase cascade activation in H1299 cells; conditions: NCI-H1299, 24 h, read-out: Caspase activation Potency EC50 H1299 (24 h)
Method: as §4, §5, §6

[6] = system: human breast cancer cell line T-47D; assay: Caspase cascade activation (DEVD-R110 fluorogenic substrate) in T-47D cells; conditions: Homo sapiens, T47D
Method: as §4, §5, §6

[7] = system: human breast cancer cell line T-47D; assay: Inhibition of cell proliferation (GI50, CellTiter-Glo) in T-47D cells; conditions: T47D cells
Method: as §1, §2, §3

[8] = system: human breast cancer cell line MDAMB435; assay: Inhibition of cell proliferation (GI50) in MDAMB435 cells
Method: as §1, §2, §3

[9] = system: human colon carcinoma cell line HCT116; assay: Caspase cascade activation in HCT116 cells; conditions: Homo sapiens, HCT-116, 48 h, read-out: Caspase activation Potency EC50 HCT116 (48 h)
Method: as §4, §5, §6

[10] = system: human hepatocellular carcinoma cell line SNU398; assay: Inhibition of cell proliferation (GI50) in SNU398 cells; conditions: SNU-398, Table IV, read-out: GI50 in Multi-Cancer Cells SNU398
Method: as §1, §2, §3
(§7) Several compounds were tested in multi cancer cell lines, including human breast cancer cell lines T-47D, MX-1, SKBR3 and MDAMB435, human hepatocellular carcinoma cell line SNU398, human colon carcinoma cell line HCT116, human sarcoma cell line MES-SA and multi-drug resistant (MDR) human sarcoma cell line MES-SA/ADR, murine leukemia cell line P388 and multi-drug resistant (MDR) murine leukemia cell line P388ADR, and the data are summarized in Table IV.

[11] = system: human sarcoma cell line MES-SA; assay: Inhibition of cell proliferation (GI50) in MES-SA cells; conditions: Table IV, read-out: GI50 in Multi-Cancer Cells MES-SA
Method: as §1, §2, §3, §7

[12] = system: multi-drug resistant (MDR) murine leukemia cell line P388ADR; assay: Inhibition of cell proliferation (GI50) in P388/ADR cells; conditions: Mus musculus, Table IV, read-out: GI50 in Multi-Cancer Cells P388/ADR
Method: as §1, §2, §3, §7

[13] = system: murine leukemia cell line P388; assay: Inhibition of cell proliferation (GI50) in P388 cells; conditions: Mus musculus, Table IV, read-out: GI50 in Multi-Cancer Cells P388
Method: as §1, §2, §3, §7

[14] = system: human colon carcinoma cell line HCT116; assay: Inhibition of cell proliferation (GI50) in HCT116 cells; conditions: HCT-116, Table IV, read-out: GI50 in Multi-Cancer Cells HCT116
Method: as §1, §2, §3, §7

[15] = system: multi-drug resistant (MDR) human sarcoma cell line MES-SA/ADR; assay: Inhibition of cell proliferation (GI50) in MES-SA/ADR cells; conditions: Table IV, read-out: GI50 in Multi-Cancer Cells MES-SA/ADR
Method: as §1, §2, §3, §7

[16] = system: human breast cancer cell line SKBR3; assay: Inhibition of cell proliferation (GI50) in SKBR3 cells; conditions: SK-BR-3, Table IV, read-out: GI50 in Multi-Cancer Cells SKBR3
Method: as §1, §2, §3, §7

[17] = 24 h, T47D cells, 24 h, read-out: Caspase activation Potency EC50 T47D (24 h)
[18] = 48 h, T-47D cells, 48 h, read-out: Caspase activation Potency EC50 T-47D (48 h)
[19] = Table IV, read-out: GI50 in Multi-Cancer Cells MX1
[20] = Table IV, read-out: GI50 in Multi-Cancer Cells T47D
[21] = MDA-MB-435, Table IV, read-out: GI50 in Multi-Cancer Cells MDAMB435

Row | GI50 ([1]; Table III, 48 h, read-out: GI50 in Cancer Cells MX1) [nM] | EC50 [2] [nM] | GI50 [3] [nM] | GI50 [4] [nM] | EC50 [5] [nM] | EC50 [6, 17] [nM] | EC50 [6, 18] [nM] | GI50 ([7]; Table III, 48 h, read-out: GI50 in Cancer Cells T47D) [nM] | GI50 ([8]; MDA-MB-435, Table III, 48 h, read-out: GI50 in Cancer Cells MDAMB435) [nM] | EC50 [9] [nM] | GI50 [10] [nM] | GI50 [1, 19] [nM] | GI50 [11] [nM] | GI50 [7, 20] [nM] | GI50 [12] [nM] | GI50 [8, 21] [nM] | GI50 [13] [nM] | GI50 [14] [nM] | GI50 [15] [nM] | GI50 [16] [nM] | SMILES
1 | 300 | 557 | 3550 | 1170 | 1550 | 65 | 40 | 80 | 295 | 2330 |  |  |  |  |  |  |  |  |  |  | COc1ccc(OC)c(Nc2nc(C)nc3ccsc23)c1 [Example 1, N-(2,5-Dimethoxyphenyl)-2-methylthieno[3,2-d]pyrimidin-4-amine]
2 |  | > 10000 |  |  | > 10000 | > 10000 | 6900 |  |  | > 10000 |  |  |  |  |  |  |  |  |  |  | COc1ccc(Cl)cc1Nc1ncnc2ccsc12 [Example 39, N-(5-Chloro-2-methoxyphenyl)thieno[3,2-d]pyrimidin-4-amine]
3 |  | 4850 |  |  | 5490 | 5240 | 2140 |  |  | > 10000 |  |  |  |  |  |  |  |  |  |  | COc1ccc(C(C)(C)C)cc1Nc1ncnc2ccsc12 [Example 40, N-(5-tert-Butyl-2-methoxyphenyl)thieno[3,2-d]pyrimidin-4-amine]
4 |  | > 10000 |  |  | > 10000 | > 10000 | > 10000 |  |  | > 10000 |  |  |  |  |  |  |  |  |  |  | COc1ccc(C(=O)O)cc1Nc1ncnc2ccsc12 [Example 41, 4-Methoxy-3-(thieno[3,2-d]pyrimidin-4-ylamino)-benzoic acid]
5 |  | > 10000 |  |  | > 10000 | > 10000 | > 10000 |  |  | > 10000 |  |  |  |  |  |  |  |  |  |  | COc1ccc(O)c(Nc2ncnc3ccsc23)c1 [Example 42, N-(2-Hydroxy-5-methoxyphenyl)thieno[3,2-d]pyrimidin-4-amine]
6 |  | > 10000 |  |  | > 10000 | > 10000 | > 10000 |  |  | > 10000 |  |  |  |  |  |  |  |  |  |  | Oc1cc(O)cc(Nc2ncnc3ccsc23)c1 [Example 43, N-(3,5-Dihydroxyphenyl)thieno[3,2-d]pyrimidin-4-amine]
7 |  | 256 |  |  |  | 27 | 30 |  |  | 61 | 1070 | 100 | 788 | 40 | 1100 | 121 | 1050 | 6580 | 2000 |  | COc1cc(Nc2nc(C)nc3ccsc23)cc(OC)c1 [Example 54, N-(3,5-Dimethoxyphenyl)-2-methylthieno[3,2-d]pyrimidin-4-amine]
8 |  | 138 |  |  |  | 355 | 287 |  |  | 291 | 299 | 791 | 836 | 398 | 199 | 61 | 280 | 400 | 767 | 600 | COc1cc(Nc2ncnc3ccsc23)cc(-n2cnnn2)c1 [Example 61, N-(3-Methoxy-5-(1H-tetrazol-1-yl)phenyl)thieno[3,2-d]pyrimidin-4-amine]
9 |  | > 10000 |  |  | > 10000 | > 10000 | > 10000 |  |  | > 10000 |  |  |  |  |  |  |  |  |  |  | COc1cccc(OC)c1Nc1ncnc2ccsc12 [Example 62, N-(2,6-Dimethoxyphenyl)thieno[3,2-d]pyrimidin-4-amine]
10 |  | 251 |  |  |  |  | 191 |  |  | 323 | 276 | 9850 | 600 | 133 | 249 | 41 | 381 | 300 | 520 | 100 | COc1cc(Nc2ncnc3ccsc23)cc(N(C)C)c1 [Example 69, N-(3-Dimethylamino-5-methoxyphenyl)thieno[3,2-d]pyrimidin-4-amine]
11 |  | 262 |  |  |  |  | 209 |  |  | 144 | 305 | 1670 | 385 | 208 | 157 | 92 | 218 | 300 | 796 | 200 | COc1cc(N=[N+]=[N-])cc(Nc2ncnc3ccsc23)c1 [Example 71, N-(3-Azido-5-methoxyphenyl)thieno[3,2-d]pyrimidin-4-amine]
12 |  | > 10000 |  |  | > 10000 | > 10000 | > 10000 |  |  | > 10000 |  |  |  |  |  |  |  |  |  |  | COc1ccc(N)cc1Nc1ncnc2ccsc12 [Example 72, N-(5-Amino-2-methoxyphenyl)thieno[3,2-d]pyrimidin-4-amine]
